Data published in patent US20140235520A1, “Perfume Compositions” (Givaudan Nederland Services B.V., priority 2005, published 2014).

Assays:
[1] = system: Escherichia coli ATCC 10536; assay: Standardised biofilm detachment assay (96 well microtitre plate, crystal violet OD540) in quarter strength GPC base Formula A; format: cell-based; conditions: for Group (PDV class: active / non-active / antagonist to biofilm detachment): ingredient as 1 of 4 equal-weight ingredients (other 3 Group B), perfume 0.25% w/w in quarter strength GPC base Formula A, 20 min 21° C., flavour ingredients classed in toothpaste base
[2] = system: Escherichia coli ATCC 10536; assay: Biofilm detachment assay in quarter strength modified transparent silica toothpaste base (Formula B); format: cell-based; conditions: positive control, Example 3
Description: The procedure described in example 1(a) was repeated but wherein flavour compositions comprising flavour ingredients from the oral care palette to be tested were prepared. The compositions were added to a modified transparent silica toothpaste base (diluted to quarter strength) together with de-ionised water to produce test mixtures with the composition as set out in Formula B below. [table] A percentage detachment value (PDV) for each test mixture was then calculated using the following formula: PDV=100−([OD540 for Test Mixture÷OD540 for Water Control]×100). […] The PDV scores were therefore adjusted to account for base influences on flavour behaviour and Detachment Index (DI) values quoted for each flavour composition.

SMILES	Group (PDV class: active / non-active / antagonist to biofilm detachment) [1]	PDV ([1]; positive control, 2% w/w in deionised water)	PDV [2]
CC1(C)CCCC2(C)C1CCC1(C)OCCC12 (stereo not drawn) [3a,6,6,9a-tetramethyldodecahydronaphtho[2,1-{b}]furan]	B (Group B materials that are non-active to biofilm detachment are defined as those having a PDV (as defined above) of less than 9 and greater than 0)	–	–
CCC(=O)OC1CC2CC1C1C=CCC21 (stereo not drawn) [tricyclo[5.2.1.0̂{2,6}]dec-4-en-8-yl propanoate]	B (Group B materials that are non-active to biofilm detachment are defined as those having a PDV (as defined above) of less than 9 and greater than 0)	–	–
CCCCCCCCCCCCOS(=O)(=O)[O-].[Na+] [SLS, sodium lauryl sulphate, reference compound]	–	about 80%	about 80%
COc1ccc(CC(C)C=O)cc1 (stereo not drawn) [2-methyl-3-[4-(methyoxy)phenyl]propanal]	C (Group C materials that are antagonistic to biofilm detachment are defined as those having a PDV (as defined above) of less than or equal to 0)	–	–
CC(=O)C1=C(C)C2CC3(C1)C(C)CCC3C2(C)C (stereo not drawn) [1-(2,6,6,8-tetramethyltricyclo [5.3.1.0̂{1,5}]undec-8-en-9-yl)ethanone]	A (Group A materials that assist biofilm detachment are defined as those having a PDV (as defined above) of at least 9)	–	–
